This note sets out measurements from ChEMBL document CHEMBL1201862, “PubChem BioAssay data set” (2004).

Structures are written as SMILES.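 Cells were grown in 96-well plates and exposed to each compound for 48 hours at five concentrations; endpoints were interpolated linearly between bracketing concentrations, or set to the highest concentration if not reached. Abbreviation: GI50, concentration required for 50% inhibition of growth.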 Activity calls are given as the source filed them. Cut-off read from the data, not from the text of the source: active = GI50 up to about 1.1 µM and inactive = higher. Where only a bound is given, the exact number is not on record here.

Some test systems named below: IGROV-1; 786-0; SK-OV-3; NCI-H226; CCRF-CEM; OVCAR-4; HOP-62; NCI-H522; SK-MEL-5; HCT-15; K562; A549; COLO 205; Malme-3M; HT-29; LOX IMVI; KM12.
Test in all cases: growth of human tumour cells (NCI), 48 h

In the case of `COc1ccccc1N1C(=O)C2c3[nH]c4ccccc4c3C3CCC(C(C)(C)C)CC3C2C1=O` (stereo not given), the GI50 in the assay on IGROV-1, in the assay on 786-0, with SK-OV-3, in the assay with NCI-H226, in the assay on CCRF-CEM and with OVCAR-4 was > 100 µM (inactive) throughout. Also, the GI50 with HOP-62 is > 100 µM (inactive); in the assay on NCI-H522 it was > 100 µM (inactive); in the assay on SK-MEL-5, > 100 µM (inactive); in the assay on HCT-15 it was greater than 100 µM; with K562 it was > 100 µM (inactive); in the assay with A549 it was > 100 µM (inactive). Further, the GI50 with COLO 205, in the assay on Malme-3M and in the assay with HT-29 was > 100 µM (inactive) in each case.
For `CS(=O)(=O)NNS(=O)(=O)c1ccc(F)cc1`, the GI50 in the assay with IGROV-1, in the assay with 786-0, in the assay on NCI-H226, in the assay on CCRF-CEM, in the assay with OVCAR-4 and in the assay with HOP-62 was > 100 µM (inactive) each time. For the same molecule, the GI50 in the assay with NCI-H522 is > 100 µM (inactive); with SK-MEL-5, > 100 µM (inactive); with HCT-15 it was greater than 100 µM; in the assay on K562, > 100 µM (inactive); in the assay on A549 it was > 100 µM (inactive); with COLO 205 it was > 100 µM (inactive). The GI50 with LOX IMVI, in the assay on KM12, in the assay on Malme-3M and in the assay on HT-29 was > 100 µM (inactive) throughout.
As for `O=C(CC(=O)N1N=C(n2ccc3ccccc32)CC1c1ccccc1)Nc1cccc(Cl)c1` (stereo not given), the GI50 in the assay with IGROV-1, in the assay on 786-0, in the assay on SK-OV-3, in the assay on CCRF-CEM, in the assay with OVCAR-4 and in the assay with HOP-62 was > 100 µM (inactive) in each case. In addition, the GI50 in the assay on NCI-H522 is > 100 µM (inactive); in the assay on HCT-15 it was greater than 100 µM; with K562 it was > 100 µM (inactive); in the assay on A549 it was > 100 µM (inactive); in the assay on COLO 205, > 100 µM (inactive); in the assay on LOX IMVI it was 66.4 µM (inactive). Also, the GI50 with KM12, with Malme-3M and in the assay on HT-29 was > 100 µM (inactive) each time.
As for `N#CCCN(c1ccc(/C=N/c2nc(-c3ccccc3)cs2)cc1)S(=O)(=O)c1ccccc1`, the GI50 with IGROV-1 is > 100 µM (inactive); in the assay with 786-0, > 100 µM (inactive); in the assay on SK-OV-3, > 100 µM (inactive); in the assay on CCRF-CEM it was 48.5 µM (inactive); with OVCAR-4, 64.7 µM (inactive); in the assay on HOP-62 it was 96.6 µM (inactive). For the same molecule, the GI50 is 31.6 µM (inactive) in the assay with NCI-H522; 35 µM (inactive) with SK-MEL-5; greater than 100 µM in the assay on HCT-15; 35.6 µM (inactive) with K562; 76.2 µM (inactive) with A549; > 100 µM (inactive) in the assay on COLO 205. Moreover, the GI50 with LOX IMVI, with KM12, in the assay on Malme-3M and in the assay on HT-29 was > 100 µM (inactive) throughout.
For `COc1ccc(OC)c(NC(=O)C2=C(C)NC(C)=C(C(=O)Nc3cc(OC)ccc3OC)C2c2ccccc2)c1`, the GI50 in the assay on IGROV-1 is > 100 µM (inactive); with 786-0, > 100 µM (inactive); in the assay with SK-OV-3, > 100 µM (inactive); in the assay on CCRF-CEM, 48.4 µM (inactive); with OVCAR-4, > 100 µM (inactive); in the assay on HOP-62, > 100 µM (inactive). For the same molecule, the GI50 is > 100 µM (inactive) in the assay on NCI-H522; 51.3 µM (inactive) in the assay with SK-MEL-5; greater than 100 µM in the assay with HCT-15; 83 µM (inactive) with K562; 85.1 µM (inactive) in the assay with A549; > 100 µM (inactive) in the assay with COLO 205. Moreover, the GI50 in the assay on LOX IMVI is > 100 µM (inactive); in the assay on KM12, 91.4 µM (inactive); in the assay with Malme-3M, > 100 µM (inactive); with HT-29 it was > 100 µM (inactive).
As for `Cc1cc(C)nc(NS(=O)(=O)c2ccc(Nc3c4ccc(Cl)cc4nc4c(C(=O)Nc5ccc(S(N)(=O)=O)cc5)cccc34)cc2)n1`, the GI50 with 786-0 was 15.2 µM (inactive); with SK-OV-3 it was 13.9 µM (inactive); in the assay on CCRF-CEM it was 25.1 µM (inactive); in the assay on OVCAR-4, 23.5 µM (inactive); with HOP-62 it was 14.1 µM (inactive); with NCI-H522, 10.9 µM (inactive). Moreover, the GI50 was 17.9 µM in the assay with HCT-15; 25.1 µM (inactive) with K562; 16 µM (inactive) in the assay with LOX IMVI; 14.2 µM (inactive) with KM12; 33 µM (inactive) in the assay on Malme-3M; 24 µM (inactive) in the assay on HT-29.
Turning to `O=C(NN1C(=O)C(Cl)C1c1cccc(Cl)c1)c1ccccc1O` (stereo not given), the GI50 in the assay with IGROV-1, in the assay on 786-0, with SK-OV-3, in the assay with NCI-H226, with CCRF-CEM and with OVCAR-4 was > 100 µM (inactive) in each case. For the same molecule, the GI50 was > 100 µM (inactive) in the assay on NCI-H522; > 100 µM (inactive) with SK-MEL-5; greater than 100 µM in the assay with HCT-15; > 100 µM (inactive) with K562; > 100 µM (inactive) in the assay on A549; > 100 µM (inactive) with LOX IMVI. Further, the GI50 in the assay with KM12, in the assay with Malme-3M and in the assay with HT-29 was > 100 µM (inactive) each time.
Take `CCCC(C(=O)OC)C1N/C(=N/C#N)N(Cc2ccccc2)C1=O` (stereo not given): the GI50 with IGROV-1, with 786-0, with SK-OV-3, with CCRF-CEM, with OVCAR-4 and in the assay on HOP-62 was > 100 µM (inactive) each time. The GI50 in the assay on NCI-H522 was > 100 µM (inactive); in the assay on SK-MEL-5 it was > 100 µM (inactive); in the assay on HCT-15, greater than 100 µM; with K562, 66.4 µM (inactive); in the assay with A549, > 100 µM (inactive); with COLO 205 it was > 100 µM (inactive). In addition, the GI50 in the assay on LOX IMVI, in the assay on KM12, in the assay with Malme-3M and with HT-29 was > 100 µM (inactive) throughout.
As to `O=C1NC(=O)/C(=N\c2cccc3c(=O)[nH][nH]c(=O)c23)C(c2nc3ccccc3s2)C1=O` (stereo not given), the GI50 in the assay with IGROV-1 is > 100 µM (inactive); in the assay on 786-0 it was > 100 µM (inactive); in the assay with SK-OV-3, > 100 µM (inactive); with NCI-H226 it was > 100 µM (inactive); in the assay with CCRF-CEM, 55.2 µM (inactive); in the assay with OVCAR-4 it was > 100 µM (inactive). In addition, the GI50 in the assay with HOP-62 is > 100 µM (inactive); in the assay with NCI-H522, > 100 µM (inactive); in the assay on SK-MEL-5, > 100 µM (inactive); in the assay with HCT-15, greater than 100 µM; with A549, > 100 µM (inactive); with COLO 205, > 100 µM (inactive). In addition, the GI50 with KM12, with Malme-3M and in the assay on HT-29 was > 100 µM (inactive) in each case.
On to `COc1ccc(C2NC(c3ccc(OC)cc3)C(C)C(=O)C2C)cc1` (stereo not given), for which the GI50 in the assay on IGROV-1, with 786-0, in the assay with SK-OV-3, in the assay on CCRF-CEM, in the assay with OVCAR-4 and in the assay with HOP-62 was > 100 µM (inactive) each time. Besides, the GI50 with NCI-H522 is > 100 µM (inactive); in the assay on HCT-15, greater than 100 µM; with K562, 42.7 µM (inactive); in the assay with COLO 205, > 100 µM (inactive); in the assay on LOX IMVI it was > 100 µM (inactive); in the assay on KM12, > 100 µM (inactive). Moreover, the GI50 with Malme-3M and with HT-29 was > 100 µM (inactive) in each case.
Take `Oc1cc(O)c(Oc2cccc(O)c2O)c(O)c1`: the GI50 with IGROV-1 was > 100 µM (inactive); in the assay with 786-0, 42.6 µM (inactive); with SK-OV-3, > 100 µM (inactive); in the assay with CCRF-CEM, 33.3 µM (inactive); in the assay on OVCAR-4 it was 15.5 µM (inactive); in the assay on HOP-62, > 100 µM (inactive). For the same molecule, the GI50 in the assay on NCI-H522 was 49.7 µM (inactive); with SK-MEL-5, 18.6 µM (inactive); in the assay on HCT-15 it was greater than 100 µM; in the assay on K562, 35 µM (inactive); with A549 it was > 100 µM (inactive); with COLO 205, > 100 µM (inactive). The GI50 in the assay on KM12, in the assay on Malme-3M and in the assay on HT-29 was > 100 µM (inactive) each time.
Regarding `COc1ccc2c(c1)[n+]([O-])c(-c1ccc(Cl)c(Cl)c1)c(N)[n+]2[O-]`, the GI50 is 27 µM (inactive) in the assay with IGROV-1; 36.7 µM (inactive) with 786-0; 55.1 µM (inactive) in the assay with SK-OV-3; 45.1 µM (inactive) in the assay on NCI-H226; 28.7 µM (inactive) in the assay with OVCAR-4; 60.8 µM (inactive) with HOP-62. Also, the GI50 with NCI-H522 is 14.3 µM (inactive); in the assay with SK-MEL-5, 16.5 µM (inactive); with HCT-15, 33.3 µM; in the assay on K562, 40.7 µM (inactive); with A549, 30.3 µM (inactive); in the assay with COLO 205, 19 µM (inactive). Moreover, the GI50 is 34.3 µM (inactive) with KM12, 23.6 µM (inactive) in the assay with Malme-3M and 37.5 µM (inactive) in the assay on HT-29.
As for `CCSc1nc2n(c(=S)n1)CCN2C`, the GI50 is 17.7 µM (inactive) with IGROV-1; 18.5 µM (inactive) in the assay on 786-0; 21 µM (inactive) in the assay with SK-OV-3; 18.6 µM (inactive) in the assay with NCI-H226; 18.5 µM (inactive) in the assay on OVCAR-4; 28.6 µM (inactive) in the assay on HOP-62. Besides, the GI50 in the assay with NCI-H522 was 5.4 µM (inactive); in the assay on SK-MEL-5 it was 15.2 µM (inactive); with HCT-15, 17.5 µM; in the assay with K562 it was 27.7 µM (inactive); with A549 it was 24.5 µM (inactive); with LOX IMVI, 18.4 µM (inactive). Besides, the GI50 in the assay on KM12 is 21.4 µM (inactive); with Malme-3M, 17.1 µM (inactive); in the assay with HT-29 it was 17.4 µM (inactive).
